Assay results: article PMC11170107, “Development of a new hazard scoring system in primary neuronal cell cultures for drug-induced acute neuronal toxicity identification in early drug discovery” (Frontiers in Pharmacology, 2024)

What was measured:
[1] = ref National library of medicine, Daylimed; cited from earlier work
[2] = WHO adverse drug reactions VigiBase; ref Kumlien and Lundberg, 2010; cited from earlier work
[3] = established from VigiBase, SIDER, Elsevier drug information and FDA prescribing information
[4] = Supplementary Table S1; cited from earlier work
[5] = test system: rat primary cortical neurons; experiment: MEA hazard scoring in rat primary cortical neuronal cultures; details: for hazard classification in the hazard scoring system: rat primary neurons on MEA
Method: (§1) At DIV28, spontaneous neuronal activity obtained for 30 min in culture solution was defined as the baseline.
(§2) Data analysis was captured using AxIs suite software (Axion Biosystems Inc., version 3.6.2) and further analyzed using GraphPad Prism (version 9.00; GraphPad Software Inc., San Diego, CA). […] An active well should have more than 40% active electrodes. All wells below this threshold were discarded upon these quality criteria. For the downstream statistical analysis, the data on each MEA parameter was first expressed as the ratio of exposed wells (percentage change between baseline and the treatment) and then normalized to the average of the control within the same plate. i.e., Baseline corrected ratios of n= 7 or eight wells were averaged per condition. Each well of the MEA served as its own control, and the changes in the electrical activity elicited by the treatments were expressed as a percentage of that control activity and normalized to the wells treated with the vehicle control dimethyl sulfoxide (DMSO). […] Differences were determined using the non-parametric Wilcoxon Mann Whitney test; p-values below 0.05 were considered significant. Data are expressed as means ± S.E.M.
(§3) Thereafter, based on the effects of vehicles and positive controls, we determined the cut-off points between the different effect zones according to the key parameters selected as described in the previous subsection. The zones were defined as follows. The “no effect” zone reflects parameter changes that are most likely within vehicle variability. The “mild” and “strong” zones are differentiated bidirectionally showing mild and strong effects.
(§4) The respective hazard class was determined by a cumulative scoring of individual parameters using a scoring matrix, which was based on the following three fundamental components: (1) selection of the six key relevant parameters, (2) defining the cutoffs for the level of effect, and (3) defining weighted points per parameter for the level of hazard potential. The scoring matrix concluded with the addition of a weighted point algorithm to discriminate distinct degrees of neuronal hazard. […] The weighted points were defined on the importance of a parameter (and the direction of effect), as well as the identification of an expected hazard for different pharmacological modes of action. The overall hazard score is derived from the sum of all weighted parameters, which could be converted into a specific hazard label. The weighted points and total score range associated with the various hazard labels were optimized using an iterative process.

[6] = seizure ADR frequency in SIDER; ref Campillos et al., 2008; Kuhn et al., 2010; cited from earlier work
[7] = test system: rat primary cortical neurons
Method: as §1, §2, §3, §4

Compound	FDA prescription information at therapeutic dose (Convulsion/ Seizure/Lower the seizure threshold/withdrawal) [1]	Percentage seizures of total number of ADRs [2] [%]	Classification* (degree of seizure risk) [3]	Free Cmax highest [4] [nM]	hazard classification in the hazard scoring system [5]	firing rate (weighted mean firing rate) in MEA recordings ([5]; rodent cortical neurons in vitro)	SIDER ADR on-/off-label [6]	hazard score group in Figure 3 [7]
N=C(N)NC(=O)c1nc(Cl)c(N)nc1N [Amiloride]	not found on label	0.3506	No risk	74.6	high seizure risk	increase of activity	not found on label	–
CC(=O)Oc1ccccc1C(=O)O [Aspirin]	not found on label	0.216	No risk	43400	–	–	not found on label	–
O=C(CCCl)NCc1ccccc1 [Beclamide]	–	0	Low risk	–	high hazard	–	–	–
CC(C)C[C@H]1C(=O)N2CCC[C@H]2[C@]2(O)O[C@](NC(=O)[C@@H]3C=C4c5cccc6[nH]c(Br)c(c56)C[C@H]4N(C)C3)(C(C)C)C(=O)N12 [Bromocriptine]	On label	3.063	Risk	1.4	–	–	postmarketing	–
CN1C(=O)CN=C(c2ccccc2)c2cc(Cl)ccc21 [Diazepam]	On label	–	–	–	–	–	–	Neuro Active to high hazard
CCN(CC)C(=O)/C(C#N)=C/c1cc(O)c(O)c([N+](=O)[O-])c1 [Entacapone]	not found on label	0.4204	Risk	130	–	–	no frequency information	–
CN1C[C@H](C(=O)N[C@]2(C)O[C@@]3(O)[C@@H]4CCCN4C(=O)[C@H](Cc4ccccc4)N3C2=O)C=C2c3cccc4[nH]cc(c34)C[C@H]21 [Ergotamine]	not found on label	0.8818	Risk	0.4	–	–	not found on label	Neuro Active to high hazard
NC(=O)OCC(COC(N)=O)c1ccccc1 [Felbamate]	on label	9.4112	Low risk	181000	–	–	not found on label	–
CNCCC(Oc1ccc(C(F)(F)F)cc1)c1ccccc1 (stereo not drawn) [Fluoxetine]	On label	1.97	Risk	470	–	–	uncommon	–
NCC1(CC(=O)O)CCCCC1 [Gabapentin]	On label	1.766	Risk	2080	–	–	postmarketing	Neuro Active to high hazard
NCC(=O)O [Glycine]	not found on label	–	–	–	–	–	no frequency information	Neuro Active to hazard
COc1cc(C(C)=O)ccc1OCCCN1CCC(c2noc3cc(F)ccc23)CC1 [Iloperidone]	not found on label	1.653	Low risk	12	–	–	not found on label	–
CNC1(c2ccccc2Cl)CCCCC1=O (stereo not drawn) [Ketamine]	not found on label	1.967	Low risk	1740	–	–	no frequency information	–
Nc1nnc(-c2cccc(Cl)c2Cl)c(N)n1 [Lamotrigine]	On label	7.325	Risk	8600	–	–	1.9% - 4%	–
O=C1Nc2ccc(Cl)cc2C(c2ccccc2Cl)=NC1O (stereo not drawn) [Lorazepam]	on label	1.949	Risk	22	–	–	postmarketing — 0.769%	–
